In ChEMBL document CHEMBL1201862, “PubChem BioAssay data set” (2004):
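Briefly, cells in 96-well plates were exposed to five compound concentrations for 48 h, and endpoints were estimated by linear interpolation. Abbreviation: GI50, concentration required for 50% inhibition of growth.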 Calls of active or inactive are those of the source. Rule as the data show it: active = GI50 up to about 1.1 µM and inactive = higher.

Key:
Assay in all cases: DTP human tumour cell line panel, 48 h
SF-295 = test system: SF-295
T47D = test system: T47D
U-251 = test system: U-251
MDA-MB-231 = test system: MDA-MB-231
SN12C = test system: SN12C
NCI-H460 = test system: NCI-H460
IGROV-1 = test system: IGROV-1
SNB-75 = test system: SNB-75
SNB-19 = test system: SNB-19
M14 = test system: M14
A549 = test system: A549
786-0 = test system: 786-0
SF-539 = test system: SF-539
Malme-3M = test system: Malme-3M
OVCAR-5 = test system: OVCAR-5
RPMI-8226 = test system: RPMI-8226
A498 = test system: A498
RXF 393 = test system: RXF 393
MDA-MB-435 = test system: MDA-MB-435
Hs-578T = test system: Hs-578T
NCI-H23 = test system: NCI-H23
BT-549 = test system: BT-549
SK-OV-3 = test system: SK-OV-3
UACC-62 = test system: UACC-62
HCT-116 = test system: HCT-116
SF-268 = test system: SF-268
MCF7 = test system: MCF7
HT-29 = test system: HT-29
NCI-H522 = test system: NCI-H522
MOLT-4 = test system: MOLT-4
SW-620 = test system: SW-620
EKVX = test system: EKVX
COLO 205 = test system: COLO 205
MDA-N = test system: MDA-N
CAKI-1 = test system: CAKI-1
TK-10 = test system: TK-10
SK-MEL-2 = test system: SK-MEL-2
HOP-62 = test system: HOP-62
SK-MEL-28 = test system: SK-MEL-28
CCRF-CEM = test system: CCRF-CEM
KM12 = test system: KM12
NCI-H226 = test system: NCI-H226
DU-145 = test system: DU-145
UO-31 = test system: UO-31
HCC 2998 = test system: HCC 2998
NCI/ADR-RES = test system: NCI/ADR-RES
ACHN = test system: ACHN
UACC-257 = test system: UACC-257
OVCAR-8 = test system: OVCAR-8
HOP-92 = test system: HOP-92
PC-3 = test system: PC-3
OVCAR-4 = test system: OVCAR-4
LOX IMVI = test system: LOX IMVI
HCT-15 = test system: HCT-15
SK-MEL-5 = test system: SK-MEL-5
OVCAR-3 = test system: OVCAR-3
K562 = test system: K562
SR = test system: SR
HL-60 = test system: HL-60

Measured: GI50

N/C(=N\O)N/N=C/c1cc(Br)cc(Br)c1O
active: IGROV-1 0.507 µM | MOLT-4 1.12 µM | CAKI-1 0.461 µM | CCRF-CEM 0.491 µM | NCI/ADR-RES 1.08 µM
inactive: SF-295 4.98 µM | T47D 1.75 µM | U-251 2.78 µM | MDA-MB-231 4.6 µM | SN12C 1.86 µM | NCI-H460 3.32 µM | SNB-75 2.86 µM | SNB-19 7.11 µM | M14 2.43 µM | A549 5.27 µM | 786-0 1.91 µM | SF-539 4.49 µM | Malme-3M 2.96 µM | OVCAR-5 9.86 µM | RPMI-8226 2.61 µM | A498 3.96 µM | RXF 393 4.32 µM | MDA-MB-435 9.48 µM | Hs-578T 26.9 µM | NCI-H23 7.06 µM | BT-549 2.44 µM | SK-OV-3 7.14 µM | UACC-62 1.46 µM | HCT-116 4.24 µM | SF-268 1.75 µM | MCF7 6.21 µM | HT-29 11.4 µM | NCI-H522 16.2 µM | SW-620 8.95 µM | EKVX 14.9 µM | COLO 205 13 µM | MDA-N 10.8 µM | TK-10 5.35 µM | SK-MEL-2 8.04 µM | HOP-62 4.21 µM | SK-MEL-28 8.73 µM | KM12 5.08 µM | NCI-H226 1.29 µM | DU-145 3.19 µM | UO-31 1.92 µM | HCC 2998 6.53 µM | ACHN 1.95 µM | UACC-257 14 µM | OVCAR-8 2.37 µM | HOP-92 2.86 µM | PC-3 5.74 µM | OVCAR-4 4.23 µM | LOX IMVI 2.35 µM | SK-MEL-5 6.89 µM | OVCAR-3 2.37 µM | K562 2.65 µM
0.67 µM: HCT-15

CCOC(=O)c1cc(C2(O)CCN(Cc3ccccc3)C2=O)c(-c2cc(C)no2)[nH]1 (stereo unspecified)
71.3 µM: HCT-15
inactive: SF-295 25.6 µM | T47D 17.9 µM | U-251 44.7 µM | MDA-MB-231 29 µM | SN12C 69 µM | NCI-H460 32.4 µM | IGROV-1 46.7 µM | SNB-75 26.6 µM | SNB-19 81.1 µM | M14 55 µM | A549 40.1 µM | 786-0 60.3 µM | SF-539 89.7 µM | Malme-3M > 100 µM | OVCAR-5 61.4 µM | RPMI-8226 26.4 µM | A498 > 100 µM | RXF 393 13.3 µM | MDA-MB-435 36.7 µM | Hs-578T 34 µM | NCI-H23 73.3 µM | BT-549 66.2 µM | UACC-62 47.8 µM | HCT-116 37.9 µM | SF-268 > 100 µM | SR 27.3 µM | MCF7 47.4 µM | NCI-H522 15.4 µM | MOLT-4 12.6 µM | SW-620 47.1 µM | EKVX 41.4 µM | COLO 205 56.8 µM | MDA-N 57.3 µM | CAKI-1 32.8 µM | HL-60 15.3 µM | TK-10 67.1 µM | SK-MEL-2 48.8 µM | HOP-62 64.7 µM | SK-MEL-28 59.6 µM | CCRF-CEM 29 µM | KM12 37.8 µM | NCI-H226 55.7 µM | DU-145 88.9 µM | UO-31 32.1 µM | HCC 2998 92.9 µM | NCI/ADR-RES 38.5 µM | ACHN 45.5 µM | UACC-257 75.9 µM | OVCAR-8 37.3 µM | PC-3 42.4 µM | OVCAR-4 30.3 µM | LOX IMVI 29.5 µM | SK-MEL-5 40 µM | OVCAR-3 36.5 µM | K562 27 µM

N#Cc1nc(CCN2C(=O)c3ccccc3C2=O)oc1N
inactive: SF-295 > 100 µM | T47D > 100 µM | U-251 > 100 µM | MDA-MB-231 > 100 µM | SN12C > 100 µM | NCI-H460 > 100 µM | IGROV-1 > 100 µM | SNB-19 > 100 µM | M14 > 100 µM | A549 > 100 µM | 786-0 > 100 µM | SF-539 > 100 µM | Malme-3M > 100 µM | OVCAR-5 > 100 µM | RPMI-8226 > 100 µM | RXF 393 > 100 µM | MDA-MB-435 > 100 µM | Hs-578T > 100 µM | NCI-H23 > 100 µM | BT-549 > 100 µM | SK-OV-3 > 100 µM | HCT-116 > 100 µM | SF-268 > 100 µM | SR > 100 µM | MCF7 > 100 µM | HT-29 > 100 µM | NCI-H522 > 100 µM | MOLT-4 > 100 µM | SW-620 > 100 µM | EKVX > 100 µM | COLO 205 > 100 µM | MDA-N > 100 µM | CAKI-1 > 100 µM | TK-10 > 100 µM | SK-MEL-2 > 100 µM | HOP-62 > 100 µM | SK-MEL-28 > 100 µM | CCRF-CEM > 100 µM | KM12 4.45 µM | NCI-H226 > 100 µM | DU-145 > 100 µM | UO-31 > 100 µM | NCI/ADR-RES > 100 µM | ACHN > 100 µM | UACC-257 > 100 µM | OVCAR-8 > 100 µM | PC-3 > 100 µM | OVCAR-4 > 100 µM | LOX IMVI > 100 µM | SK-MEL-5 > 100 µM | OVCAR-3 > 100 µM | K562 > 100 µM
active: SNB-75 < 0.01 µM | HCC 2998 0.0845 µM
> 100 µM: HCT-15

O=C(O)c1ccccc1Sc1ccc(C=C2NC(=S)N(c3ccccc3)C2=O)s1
> 100 µM: HCT-15
inactive: SF-295 > 100 µM | T47D 77.6 µM | U-251 > 100 µM | MDA-MB-231 > 100 µM | SN12C > 100 µM | NCI-H460 > 100 µM | IGROV-1 > 100 µM | SNB-75 > 100 µM | SNB-19 > 100 µM | 786-0 18.8 µM | Malme-3M > 100 µM | OVCAR-5 > 100 µM | RPMI-8226 41 µM | A498 > 100 µM | RXF 393 > 100 µM | MDA-MB-435 > 100 µM | Hs-578T > 100 µM | NCI-H23 > 100 µM | BT-549 > 100 µM | UACC-62 > 100 µM | HCT-116 72.8 µM | SF-268 > 100 µM | SR 29 µM | MCF7 > 100 µM | HT-29 > 100 µM | NCI-H522 21.4 µM | MOLT-4 54.1 µM | SW-620 > 100 µM | EKVX 97.3 µM | COLO 205 54.7 µM | MDA-N > 100 µM | CAKI-1 44.4 µM | HL-60 25.2 µM | TK-10 76.2 µM | SK-MEL-2 22.2 µM | HOP-62 > 100 µM | SK-MEL-28 > 100 µM | KM12 > 100 µM | NCI-H226 > 100 µM | DU-145 > 100 µM | UO-31 78.7 µM | HCC 2998 97.5 µM | NCI/ADR-RES > 100 µM | ACHN 39.6 µM | UACC-257 > 100 µM | OVCAR-8 > 100 µM | PC-3 > 100 µM | OVCAR-4 24.9 µM | LOX IMVI > 100 µM | SK-MEL-5 > 100 µM | OVCAR-3 47.5 µM | K562 31.6 µM

CC1Cc2c(Br)nc(N)nc2NC1=O (stereo unspecified)
inactive: SF-295 > 100 µM | T47D > 100 µM | U-251 > 100 µM | MDA-MB-231 > 100 µM | SN12C > 100 µM | NCI-H460 > 100 µM | IGROV-1 > 100 µM | SNB-75 > 100 µM | SNB-19 > 100 µM | M14 > 100 µM | A549 > 100 µM | 786-0 > 100 µM | SF-539 > 100 µM | Malme-3M > 100 µM | OVCAR-5 > 100 µM | RPMI-8226 > 100 µM | A498 > 100 µM | MDA-MB-435 > 100 µM | Hs-578T > 100 µM | NCI-H23 > 100 µM | BT-549 > 100 µM | SK-OV-3 > 100 µM | UACC-62 > 100 µM | HCT-116 > 100 µM | SF-268 > 100 µM | SR 86.3 µM | MCF7 > 100 µM | HT-29 > 100 µM | NCI-H522 > 100 µM | MOLT-4 > 100 µM | SW-620 > 100 µM | EKVX > 100 µM | COLO 205 > 100 µM | MDA-N > 100 µM | CAKI-1 > 100 µM | TK-10 > 100 µM | SK-MEL-2 > 100 µM | HOP-62 > 100 µM | SK-MEL-28 > 100 µM | KM12 > 100 µM | NCI-H226 > 100 µM | DU-145 > 100 µM | UO-31 > 100 µM | HCC 2998 > 100 µM | NCI/ADR-RES > 100 µM | ACHN > 100 µM | UACC-257 > 100 µM | OVCAR-8 > 100 µM | PC-3 > 100 µM | OVCAR-4 > 100 µM | LOX IMVI > 100 µM | SK-MEL-5 > 100 µM | OVCAR-3 > 100 µM | K562 > 100 µM
> 100 µM: HCT-15
